Test results: PubChem BioAssay AID296 (DTP/NCI, 2004)
Values joined by “and” are separate entries in the source; they are usually repeats but may differ in a detail not shown here. Equal entries are not always repeated. Results filed as inconclusive are left out.

System: MX-1 breast xenograft, nude mice, tumor weight T/C
Assay: NCI In Vivo Anticancer Drug Screen. Data for tumor model Human Mammary Carcinoma MX-1 Xenograft (intrarenal inoculation) in NU/NU Swiss (nude) mice
Settings: endpoint: mean tumor weight change, higher = larger tumour
In short: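 Antitumour effect measured in vivo against vehicle controls, expressed as T/C.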

[1] = dose: 1200.0 mg/kg/injection, schedule: Q04DX003 (sc), vehicle: saline with Tween-80
[2] = dose: 2400.0 mg/kg/injection, schedule: Q04DX003 (sc), vehicle: saline with Tween-80
[3] = dose: 600.0 mg/kg/injection, schedule: Q04DX003 (sc), vehicle: saline with Tween-80
[4] = dose: 50.0 mg/kg/injection, schedule: Q01DX010 (sc), vehicle: saline
[5] = dose: 200.0 mg/kg/injection, schedule: Q04DX003 (sc), vehicle: Klucel (hydroxypropylcellulose) (HPC)
[6] = dose: 400.0 mg/kg/injection, schedule: Q04DX003 (sc), vehicle: Klucel (hydroxypropylcellulose) (HPC)
[7] = dose: 800.0 mg/kg/injection, schedule: Q04DX003 (sc), vehicle: Klucel (hydroxypropylcellulose) (HPC)
[8] = dose: 300.0 mg/kg/injection, schedule: Q04DX003 (sc), vehicle: saline with Tween-80

In the case of `COc1cc2c(cc1O)N=C[C@@H]1CCC(O)N1C2=O` (mixture of isomers), the T/C (dose: 1.0 mg/kg/injection, schedule: Q01DX010 (sc), vehicle: saline) is reported as 295 % of control, the T/C (dose: 2.0 mg/kg/injection, schedule: Q01DX010 (sc), vehicle: saline) is reported as 197 % of control and the T/C (dose: 4.0 mg/kg/injection, schedule: Q01DX010 (sc), vehicle: saline) is reported as 214 % of control. For the same compound, the T/C (dose: 8.0 mg/kg/injection, schedule: Q01DX010 (sc), vehicle: saline) was 187 % of control.
In the case of `O=CN(SSN(C=O)C1CCCCC1)C1CCCCC1`, the T/C (dose: 50.0 mg/kg/injection, schedule: Q01DX010 (sc), vehicle: saline with Tween-80) is reported as 69 % of control, the T/C (dose: 100.0 mg/kg/injection, schedule: Q01DX010 (sc), vehicle: saline with Tween-80) is reported as 83 % of control and the T/C (dose: 200.0 mg/kg/injection, schedule: Q01DX010 (sc), vehicle: saline with Tween-80) is reported as 53 % of control. The T/C (dose: 400.0 mg/kg/injection, schedule: Q01DX010 (sc), vehicle: saline with Tween-80) was 34 % of control.
For `OCCN1CCN(CCCN2c3ccccc3Sc3ccc(C(F)(F)F)cc32)CC1`, the T/C (dose: 30.0 mg/kg/injection, schedule: Q04DX003 (sc), vehicle: saline) was 87 % of control, the T/C (dose: 60.0 mg/kg/injection, schedule: Q04DX003 (sc), vehicle: saline) was 50 % of control and 71 % of control and the T/C (dose: 480.0 mg/kg/injection, schedule: Q04DX003 (sc), vehicle: saline) was 36 % of control.
For `CCOC(=O)N(C)N=NC`, the T/C (dose: 15.0 mg/kg/injection, schedule: Q04DX003 (ip), vehicle: saline) was 97 % of control, the T/C (dose: 30.0 mg/kg/injection, schedule: Q04DX003 (ip), vehicle: saline) was 95 % of control and the T/C (dose: 60.0 mg/kg/injection, schedule: Q04DX003 (ip), vehicle: saline) was 71 % of control. For the same compound, the T/C (dose: 120.0 mg/kg/injection, schedule: Q04DX003 (ip), vehicle: saline) was 52 % of control.
`Cc1cccc(OCC(O)CN2CC2)c1` (stereo not drawn) was tested, and the T/C (dose: 50.0 mg/kg/injection, schedule: Q04DX003 (ip), vehicle: saline with Tween-80) was 70 % of control, the T/C (dose: 100.0 mg/kg/injection, schedule: Q04DX003 (ip), vehicle: saline with Tween-80) was 58 % of control and the T/C (dose: 200.0 mg/kg/injection, schedule: Q04DX003 (ip), vehicle: saline with Tween-80) was 43 % of control.
For `C[C@]12CC[C@@H]3c4ccc(OC(=O)Cc5ccc(N(CCCl)CCCl)cc5)cc4CC[C@H]3[C@@H]1CC[C@@H]2OC(=O)Cc1ccc(N(CCCl)CCCl)cc1`, the T/C (dose: 200.0 mg/kg/injection, schedule: Q04DX003 (sc), vehicle: saline with Tween-80) was 58 % of control, the T/C (dose: 400.0 mg/kg/injection, schedule: Q04DX003 (sc), vehicle: saline with Tween-80) was 50 % of control and the T/C (dose: 800.0 mg/kg/injection, schedule: Q04DX003 (sc), vehicle: saline with Tween-80) was 33 % of control. For the same compound, the T/C [1] was 36 % of control, the T/C (dose: 1600.0 mg/kg/injection, schedule: Q04DX003 (sc), vehicle: saline with Tween-80) was 7 % of control and 26 % of control and the T/C (dose: 2000.0 mg/kg/injection, schedule: Q04DX003 (sc), vehicle: saline with Tween-80) was 21 % of control. The T/C [2] was 35 % of control.
With `CN=S(=O)(OCCCCCOS(=O)(=NC)c1ccccc1)c1ccccc1` (stereo not drawn) the T/C [3] was 76 % of control.
`N#Cc1ccc(NN=O)nc1` was tested, and the T/C (dose: 12.5 mg/kg/injection, schedule: Q04DX003 (ip), vehicle: water) was 110 % of control, the T/C (dose: 25.0 mg/kg/injection, schedule: Q04DX003 (ip), vehicle: water) was 18 % of control and the T/C (dose: 50.0 mg/kg/injection, schedule: Q04DX003 (ip), vehicle: water) was 18 % of control. For the same compound, the T/C (dose: 100.0 mg/kg/injection, schedule: Q04DX003 (ip), vehicle: water) was 20 % of control.
`COC1CC(CC2CCC(C)C(C(C)C(=O)O)O2)OC2(OC(C)(C3CCC(C)(C4OC(C5OC(O)(CO)C(C)CC5C)CC4C)O3)CC2C)C1C` (stereo not drawn) was tested, and the T/C (dose: 3.75 mg/kg/injection, schedule: Q04DX003 (sc), vehicle: Klucel (hydroxypropylcellulose) (HPC)) was 120 % of control, the T/C (dose: 7.5 mg/kg/injection, schedule: Q04DX003 (sc), vehicle: Klucel (hydroxypropylcellulose) (HPC)) was 65 % of control and the T/C (dose: 15.0 mg/kg/injection, schedule: Q04DX003 (sc), vehicle: Klucel (hydroxypropylcellulose) (HPC)) was 86 % of control.
`O=P1(N(CCCl)CCCl)NCCCO1` (stereo not drawn) was tested, and the T/C (dose: 6.25 mg/kg/injection, schedule: Q01DX010 (ip), vehicle: saline) was 82 % of control, the T/C (dose: 6.25 mg/kg/injection, schedule: Q01DX010 (sc), vehicle: saline) was 56 % of control and the T/C (dose: 12.5 mg/kg/injection, schedule: Q01DX010 (ip), vehicle: saline) was -29 % of control. The T/C (dose: 20.8 mg/kg/injection, schedule: Q04DX003 (ip), vehicle: saline) was 8 % of control, the T/C (dose: 25.0 mg/kg/injection, schedule: Q01DX010 (ip), vehicle: saline) was -83 % of control and the T/C (dose: 25.0 mg/kg/injection, schedule: Q01DX010 (sc), vehicle: saline) was -65 % of control and -47 % of control. For the same compound, the T/C (dose: 41.66 mg/kg/injection, schedule: Q04DX003 (ip), vehicle: saline) was -6 % of control, the T/C (dose: 41.66 mg/kg/injection, schedule: Q04DX003 (sc), vehicle: saline) was -53 % of control and the T/C [4] was -93 % of control.
With `O=[N+]([O-])c1ccc(-n2[nH]nnc2=S)cc1` the T/C [5] was 158 % of control, the T/C [6] was 151 % of control and the T/C [7] was 169 % of control.
`CC(C#N)(C#N)N=Nc1ccc(Cl)cc1Cl` was tested, and the T/C [8] was 94 % of control, the T/C [3] was 94 % of control and the T/C [1] was 98 % of control. The T/C [2] was 92 % of control.
With `Cc1ccc(NCC2(/N=C/c3ccccc3)OC(CO)C(O)C2O)cc1` (stereo not drawn) the T/C [5] was 109 % of control, the T/C [6] was 124 % of control and the T/C [7] was 94 % of control. For the same compound, the T/C (dose: 1600.0 mg/kg/injection, schedule: Q04DX003 (sc), vehicle: Klucel (hydroxypropylcellulose) (HPC)) was 101 % of control.
With `O=Cc1ccc(O)c(O)c1` the T/C [8] was 181 % of control.
In the case of `CC(=O)N(C)C`, the T/C (dose: 168.75 mg/kg/injection, schedule: Q04DX003 (sc), vehicle: saline) is reported as 81 % of control, the T/C (dose: 337.5 mg/kg/injection, schedule: Q04DX003 (sc), vehicle: saline) is reported as 100 % of control and the T/C (dose: 675.0 mg/kg/injection, schedule: Q04DX003 (sc), vehicle: saline) is reported as 85 % of control. The T/C (dose: 1350.0 mg/kg/injection, schedule: Q04DX003 (sc), vehicle: saline) was 61 % of control.
`COC1OC(CO)C(O)C(NC(=O)N(C)N=O)C1O` (stereo not drawn) was tested, and the T/C (dose: 225.0 mg/kg/injection, schedule: Q04DX003 (sc), vehicle: saline) was 45 % of control, the T/C (dose: 900.0 mg/kg/injection, schedule: Q04DX003 (sc), vehicle: saline) was 18 % of control and 20 % of control (2×) and the T/C (dose: 1800.0 mg/kg/injection, schedule: Q04DX003 (sc), vehicle: saline) was 3 % of control and 4 % of control.
In the case of `C=C[Si]12OCCN(CCO1)CCO2`, the T/C (dose: 300.0 mg/kg/injection, schedule: Q04DX003 (sc), vehicle: Klucel (hydroxypropylcellulose) (HPC)) is reported as 87 % of control, the T/C (dose: 600.0 mg/kg/injection, schedule: Q04DX003 (sc), vehicle: Klucel (hydroxypropylcellulose) (HPC)) is reported as 79 % of control and the T/C (dose: 1200.0 mg/kg/injection, schedule: Q04DX003 (sc), vehicle: Klucel (hydroxypropylcellulose) (HPC)) is reported as 106 % of control. For the same compound, the T/C (dose: 2400.0 mg/kg/injection, schedule: Q04DX003 (sc), vehicle: Klucel (hydroxypropylcellulose) (HPC)) was 89 % of control.
For `O=C1C=CN(C2OC(CO)C(O)C2O)C(=O)C1` (stereo not drawn), the T/C [4] was 92 % of control, the T/C (dose: 100.0 mg/kg/injection, schedule: Q01DX010 (sc), vehicle: saline) was 41 % of control and the T/C (dose: 200.0 mg/kg/injection, schedule: Q01DX010 (sc), vehicle: saline) was 27 % of control. For the same compound, the T/C (dose: 400.0 mg/kg/injection, schedule: Q01DX010 (sc), vehicle: saline) was 75 % of control.
With `CN(C)c1ccc2c(NCCCCCCNc3ccnc4cc(N(C)C)ccc34)ccnc2c1` the T/C (dose: 37.5 mg/kg/injection, schedule: Q04DX003 (sc), vehicle: distilled water + Tween-80 + alcohol) was 72 % of control, the T/C (dose: 75.0 mg/kg/injection, schedule: Q04DX003 (sc), vehicle: distilled water + Tween-80 + alcohol) was 63 % of control and 64 % of control and the T/C (dose: 600.0 mg/kg/injection, schedule: Q04DX003 (sc), vehicle: distilled water + Tween-80 + alcohol) was 34 % of control and 54 % of control.
In the case of `C[CH2][Sn]([CH2]C)([CH2]C(=O)OC)[CH2]C(=O)OC`, the T/C (dose: 12.5 mg/kg/injection, schedule: Q04DX003 (sc), vehicle: saline with Tween-80) is reported as 79 % of control and the T/C (dose: 25.0 mg/kg/injection, schedule: Q04DX003 (sc), vehicle: saline with Tween-80) is reported as 116 % of control.
For `Brc1ccc(C[N+]23CN4CN(CN(C4)C2)C3)cc1`, the T/C (dose: 75.0 mg/kg/injection, schedule: Q04DX003 (sc), vehicle: saline with Tween-80) was 84 % of control, the T/C (dose: 150.0 mg/kg/injection, schedule: Q04DX003 (sc), vehicle: saline with Tween-80) was 99 % of control and the T/C [8] was 89 % of control. For the same compound, the T/C [3] was 73 % of control.
